Results reported in ChEMBL document CHEMBL5126561, “New pyrazole-tetrazole hybrid compounds as potent α-amylase and non-enzymatic glycation inhibitors” (Bioorg Med Chem Lett, 2022).
Converted amounts (≈) assume the structure as drawn.

Columns and labels:
[1] = molecular target: Hemoglobin HbA (Homo sapiens) (UniProt P69905+P68871); experiment: Potency index, ratio of gallic acid IC50 to test compound IC50 for inhibition of non-enzymatic glycation in hemoglobin (unknown origin) by spectrophotometric analysis; type: protein-complex assay
[2] = molecular target: Alpha amylase (Homo sapiens) (UniProt P0DUB6); experiment: Potency index, ratio of acarbose IC50 to test compound IC50 for inhibition of alpha-amylase (unknown origin) assessed as reduction in conversion of starch to glucose preincubated for 10 mins followed by substrate addition and measured after 20 mins by DNSA reagent based spectrophotometric analysis; conditions: time 30.0 min
Hemoglobin HbA = Hemoglobin HbA (Homo sapiens, UniProt P68871+P69905); experiment: Inhibition of non-enzymatic glycation in hemoglobin (unknown origin) by spectrophotometric analysis; type: protein-complex assay
Alpha amylase = molecular target: T1, Alpha amylase (Homo sapiens, UniProt P0DUB6); experiment: Inhibition of alpha-amylase (unknown origin) assessed as reduction in conversion of starch to glucose preincubated for 10 mins followed by substrate addition and measured after 20 mins by DNSA reagent based spectrophotometric analysis
T1 sequence (P0DUB6 whole entry): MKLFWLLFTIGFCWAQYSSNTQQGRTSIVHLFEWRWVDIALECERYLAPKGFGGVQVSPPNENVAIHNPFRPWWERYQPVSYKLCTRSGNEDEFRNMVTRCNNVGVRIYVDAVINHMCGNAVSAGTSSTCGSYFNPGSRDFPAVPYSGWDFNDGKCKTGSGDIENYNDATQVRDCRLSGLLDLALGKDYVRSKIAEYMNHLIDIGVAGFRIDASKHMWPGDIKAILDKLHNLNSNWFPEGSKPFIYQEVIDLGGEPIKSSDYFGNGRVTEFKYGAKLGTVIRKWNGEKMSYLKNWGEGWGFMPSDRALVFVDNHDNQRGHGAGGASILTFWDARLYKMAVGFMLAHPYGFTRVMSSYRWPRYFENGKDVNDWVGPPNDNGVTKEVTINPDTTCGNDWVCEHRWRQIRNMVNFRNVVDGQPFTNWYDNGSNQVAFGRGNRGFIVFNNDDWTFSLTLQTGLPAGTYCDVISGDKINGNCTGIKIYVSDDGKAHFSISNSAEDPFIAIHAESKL

[3] = Lipophilicity, logP of compound; type: physicochemical; conditions: octanol/water

Hemoglobin HbA, sequence (P69905 whole entry): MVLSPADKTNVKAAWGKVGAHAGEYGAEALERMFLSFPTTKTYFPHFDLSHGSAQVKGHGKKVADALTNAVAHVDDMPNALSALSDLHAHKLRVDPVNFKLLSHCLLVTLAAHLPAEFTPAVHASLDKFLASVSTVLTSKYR
Hemoglobin HbA, sequence (P68871 whole entry): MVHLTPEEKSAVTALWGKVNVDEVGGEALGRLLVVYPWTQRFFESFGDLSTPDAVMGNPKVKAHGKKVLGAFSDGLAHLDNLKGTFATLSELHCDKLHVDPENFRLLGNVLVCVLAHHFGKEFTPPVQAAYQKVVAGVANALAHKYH
Hemoglobin HbA (Homo sapiens), sequence (P68871 2-147 partner limits assumed): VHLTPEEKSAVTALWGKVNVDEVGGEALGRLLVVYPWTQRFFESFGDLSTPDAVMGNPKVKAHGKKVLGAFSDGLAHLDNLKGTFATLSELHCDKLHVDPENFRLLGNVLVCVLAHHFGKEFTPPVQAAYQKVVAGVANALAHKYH
Hemoglobin HbA (Homo sapiens), sequence (P69905 2-142 limits assumed): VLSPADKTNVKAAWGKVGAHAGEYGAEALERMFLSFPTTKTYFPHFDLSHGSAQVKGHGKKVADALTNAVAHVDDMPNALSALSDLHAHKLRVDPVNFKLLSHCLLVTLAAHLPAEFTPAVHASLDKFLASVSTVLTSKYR

Compound	Ratio IC50 [1]	Ratio IC50 [2]	IC50 (Hemoglobin HbA) [µM]	IC50 (Alpha amylase)	logP [3]
Cc1cc(Cn2nnnc2-c2ccccn2)n[nH]1	2	70	352	4.82 10^-3mg/ml	0.86
O=C(O)c1cc(O)c(O)c(O)c1 [GALLIC ACID]			999		
CCn1nc(Cn2nnc(-c3ccccn3)n2)cc1C			2520	0.54 mg/mL (≈ 2.01 mM)	2.08
Cc1cc(Cn2nnc(-c3ccccn3)n2)n[nH]1			1950	0.95 mg/mL (≈ 3.94 mM)	1.69
Cc1cc(Cn2nnnc2Cc2ccccc2)n[nH]1			1020	1.97 mg/mL (≈ 7.75 mM)	1.62
Cc1cc(Cn2nnc(Cc3ccccc3)n2)n[nH]1			1060	5.59 mg/mL (≈ 22 mM)	2.5
CCn1nc(Cn2nnnc2Cc2ccccc2)cc1C		15	1200	0.023 mg/mL (≈ 0.0815 mM)	2.1
CCn1nc(Cn2nnc(Cc3ccccc3)n2)cc1C			1970	2.36 mg/mL (≈ 8.36 mM)	2.88
CCn1nc(Cn2nnnc2-c2ccccn2)cc1C	2.8	3010	223	1.13 10^-4mg/ml	1.34
